# Measurements published in PMC11822212, “High-throughput screening identifies Aurora kinase B as a critical therapeutic target for Merkel cell carcinoma” (Nature Communications, 2025).
# Assays:
# NIH-3T3 cells = assay: qHTS cell viability (CellTiter-Glo, 72 h; primary screen), control cell line; format: cell-based, mouse
# WAGA cells (VP-MCC) = assay: qHTS cell viability (CellTiter-Glo, 72 h; primary and follow-up small molecule screen); format: cell-based, human
# [1] = test system: MCC cell lines (WAGA, MKL-1, MKL-2, MCC13, MCC26, UISO); assay: qHTS cell viability, all six MCC cell lines as a group (mean AUC, MCC.avg); format: cell-based, human; conditions: mean AUC of six MCC cell lines
# [2] = test system: VN-MCC cell lines (MCC13, MCC26, UISO); assay: qHTS cell viability, VN-MCC cell lines as a group (mean AUC, VN.MCC.avg); format: cell-based, human; conditions: for VN-MCC_Avg_AUC: mean AUC of VN-MCC cell lines
# MKL-1 cells (VP-MCC) = assay: qHTS cell viability (CellTiter-Glo, 72 h; primary and follow-up small molecule screen); format: cell-based, human
# MKL-2 cells (VP-MCC) = assay: as above; format: cell-based, human
# [3] = test system: six MCC cell lines and four control cell lines; assay: qHTS cell viability, all 10 cell lines screened; format: cell-based
# HACAT cells = assay: qHTS cell viability (CellTiter-Glo, 72 h; primary screen), control cell line; format: cell-based, human
# [4] = test system: VP-MCC cell lines (WAGA, MKL-1, MKL-2); assay: qHTS cell viability, VP-MCC cell lines as a group (mean AUC, VP.MCC.avg); format: cell-based, human; conditions: for VP-MCC_Avg_AUC: mean AUC of VP-MCC cell lines
# HEK293T cells = assay: qHTS cell viability (CellTiter-Glo, 72 h; primary screen), control cell line; format: cell-based, human
# [5] = test system: control cell lines (HACAT, HEK293T, CRL-7250, NIH-3T3); assay: qHTS cell viability, control cell lines as a group (mean AUC, Control.avg); format: cell-based; conditions: mean AUC of control cell lines
# MCC26 cells (VN-MCC) = assay: qHTS cell viability (CellTiter-Glo, 72 h; primary and follow-up small molecule screen); format: cell-based, human
# CRL-7250 cells = assay: qHTS cell viability (CellTiter-Glo, 72 h; primary screen), control cell line; format: cell-based
# MCC13 cells (VN-MCC) = assay: qHTS cell viability (CellTiter-Glo, 72 h; primary and follow-up small molecule screen); format: cell-based, human
# UISO cells (VN-MCC) = assay: as above; format: cell-based, human
# [6] = MIPE library, 11-point DRC, control cell line, sheet S2E
# [7] = MIPE library, 11-point DRC, sheet S2E
# [8] = MIPE library, Control AUC minus VN-MCC AUC (therapeutic window), sheet S2E
# [9] = MIPE library, Control AUC minus MCC AUC (therapeutic window), sheet S2E
# [10] = MIPE library, Control AUC minus VP-MCC AUC (therapeutic window), sheet S2E
structure (smiles),measurement,setting,value
O=C(CCCCCCC(=O)Nc1cccnc1)NO [Pyroxamide],NIH3T3_AUC,NIH-3T3 cells; [6],462.753
same,WAGA_AUC,WAGA cells (VP-MCC); [7],346.535
same,MCC_Avg_AUC,"[1]; MIPE library, sheet S2E",413.478
same,Control-VN-MCC,[2]; [8],-0.2641
same,VN-MCC_Avg_AUC,"[2]; MIPE library, sheet S2E",454.124
same,MKL1_AUC,MKL-1 cells (VP-MCC); [7],400.642
same,MKL2_AUC,MKL-2 cells (VP-MCC); [7],371.322
same,Control-MCC,[3]; [9],40.3813
same,HACAT_AUC,HACAT cells; [6],452.893
same,Control-VP-MCC,[4]; [10],81.0267
same,VP-MCC_Avg_AUC,"[4]; MIPE library, sheet S2E",372.833
same,HEK293T_AUC,HEK293T cells; [6],439.975
same,Control_Avg_AUC,"[5]; MIPE library, sheet S2E",453.86
same,MCC26_AUC,MCC26 cells (VN-MCC); [7],466.672
same,CRL7250_AUC,CRL-7250 cells; [6],459.817
same,MCC13_AUC,MCC13 cells (VN-MCC); [7],454.868
same,UISO_AUC,UISO cells (VN-MCC); [7],440.831
CCCC(=O)OC[C@@H](OC(=O)CCC)[C@@H](OC(=O)CCC)[C@H](Cn1c2nc(=O)[nH]c(=O)c-2nc2cc(C)c(C)cc21)OC(=O)CCC [Riboflavin tetrabutyrate],NIH3T3_AUC,"NIH-3T3 cells; NPC library, qHTS dose-response AUC, NIH3T3 control",473.017
same,NIH3T3_AUC,"NIH-3T3 cells; area under the dose-response curve, NIH3T3 control cells, AUC<450 = reduced viability",473.017
same,WAGA_AUC,"WAGA cells (VP-MCC); NPC library, qHTS dose-response AUC, WAGA",418.091
same,WAGA_AUC,"WAGA cells (VP-MCC); area under the dose-response curve, WAGA cells, AUC<450 = reduced viability",418.091
same,MCC_Avg_AUC,[1]; NPC library,456.689
same,VN-MCC_Avg_AUC,[2]; NPC library,491.721
same,Control-VN-MCC,"[2]; NPC library, therapeutic window: Control avg AUC minus VN-MCC avg AUC",-19.0227
same,MKL1_AUC,"MKL-1 cells (VP-MCC); NPC library, qHTS dose-response AUC, MKL1",416.714
same,MKL1_AUC,MKL-1 cells (VP-MCC); {},416.714
same,MKL2_AUC,"MKL-2 cells (VP-MCC); NPC library, qHTS dose-response AUC, MKL2",430.163
same,MKL2_AUC,"MKL-2 cells (VP-MCC); area under the dose-response curve, MKL-2 cells, AUC<450 = reduced viability",430.163
same,Control-MCC,"[3]; NPC library, therapeutic window: Control avg AUC minus MCC avg AUC",16.0097
same,HACAT_AUC,"HACAT cells; NPC library, qHTS dose-response AUC, HACAT control",497.126
same,HACAT_AUC,"HACAT cells; area under the dose-response curve, HACAT control cells, AUC<450 = reduced viability",497.126
same,VP-MCC_Avg_AUC,[4]; NPC library,421.656
same,Control-VP-MCC,"[4]; NPC library, therapeutic window: Control avg AUC minus VP-MCC avg AUC",51.0422
same,HEK293T_AUC,"HEK293T cells; NPC library, qHTS dose-response AUC, HEK293T control",450.178
same,HEK293T_AUC,"HEK293T cells; area under the dose-response curve, HEK293T control cells, AUC<450 = reduced viability",450.178
same,Control_Avg_AUC,[5]; NPC library,472.698
same,MCC26_AUC,"MCC26 cells (VN-MCC); NPC library, qHTS dose-response AUC, MCC26",500.723
same,MCC26_AUC,"MCC26 cells (VN-MCC); area under the dose-response curve, MCC26 cells, AUC<450 = reduced viability",500.723
same,CRL7250_AUC,"CRL-7250 cells; NPC library, qHTS dose-response AUC, CRL7250 control",470.473
same,CRL7250_AUC,"CRL-7250 cells; area under the dose-response curve, CRL7250 control cells, AUC<450 = reduced viability",470.473
same,MCC13_AUC,"MCC13 cells (VN-MCC); NPC library, qHTS dose-response AUC, MCC13",481.481
same,MCC13_AUC,"MCC13 cells (VN-MCC); area under the dose-response curve, MCC13 cells, AUC<450 = reduced viability",481.481
same,UISO_AUC,"UISO cells (VN-MCC); NPC library, qHTS dose-response AUC, UISO",492.96
same,UISO_AUC,"UISO cells (VN-MCC); area under the dose-response curve, UISO cells, AUC<450 = reduced viability",492.96
O=C(CCCCCCC(=O)Nc1ccccc1)NO [Suberoylanilide hydroxamic acid],NIH3T3_AUC,NIH-3T3 cells; [6],416.277
same,WAGA_AUC,WAGA cells (VP-MCC); [7],347.247
same,MCC_Avg_AUC,"[1]; MIPE library, sheet S2E",395.947
same,Control-VN-MCC,[2]; [8],-12.0249
same,VN-MCC_Avg_AUC,"[2]; MIPE library, sheet S2E",436.558
same,MKL1_AUC,MKL-1 cells (VP-MCC); [7],374.242
same,MKL2_AUC,MKL-2 cells (VP-MCC); [7],344.522
same,Control-MCC,[3]; [9],28.5854
same,HACAT_AUC,HACAT cells; [6],451.394
same,Control-VP-MCC,[4]; [10],69.1958
same,VP-MCC_Avg_AUC,"[4]; MIPE library, sheet S2E",355.337
same,HEK293T_AUC,HEK293T cells; [6],400.579
same,Control_Avg_AUC,"[5]; MIPE library, sheet S2E",424.533
same,MCC26_AUC,MCC26 cells (VN-MCC); [7],457.523
same,CRL7250_AUC,CRL-7250 cells; [6],429.882
same,MCC13_AUC,MCC13 cells (VN-MCC); [7],429.995
same,UISO_AUC,UISO cells (VN-MCC); [7],422.155
